This passage reports carcinogen call results from PubChem BioAssay AID1259411 (Chemical Carcinogenesis Research Information System (CCRIS), 2018).

This data set has as its system rodent carcinogenicity bioassays, tumor incidence. Nature of the data set: CCRIS carcinogenicity studies. A digest of the protocol: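 Archive of carcinogenicity, mutagenicity, tumor promotion and tumor inhibition results drawn from journals, NCI reports and other sources, expert-reviewed; covers 1985-2011 and is no longer updated.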

Molecules are shown by their SMILES. The source made the active and inactive calls. No rule for the calls is given here.

`Nc1ccc(-c2ccccc2)cc1`: the carcinogen call is “active; positive” (Species: DOG, Route: ORAL, Tumor Site: Type of Lesion: URINARY BLADDER); “active; positive” (Species: HUMAN, Route: ORAL, INHALATION, DERMAL, Tumor Site: Type of Lesion: URINARY BLADDER); “active; positive” (Species: MOUSE, Route: ORAL, Tumor Site: Type of Lesion: URINARY BLADDER, LIVER); “active; positive” (Species: MOUSE, Route: SUBCUTANEOUS, Tumor Site: Type of Lesion: LIVER); “active; positive” (Species: MOUSE, Strain/Sex: B6C3F1/MALE, Route: INTRAPERITONEAL, Dose: 0, 0.625 UMOL IN 35 µL DMSO ON D 1, 8, AND 15 AFTER BIRTH (STUDY DURATION: 8 MO), Tumor Site: Type of Lesion: LIVER: HEPATOCELLULAR ADENOMA); “active; positive” (Species: MOUSE, Strain/Sex: B6C3F1/MALE, Route: INTRAPERITONEAL, Dose: 0, 0.625 UMOL IN 35 µL DMSO ON D 1, 8, AND 15 AFTER BIRTH (STUDY DURATION: 12 MO), Tumor Site: Type of Lesion: LIVER: HEPATOCELLULAR ADENOMA, HEPATOCELLULAR CARCINOMA). The carcinogen call is, setting by setting: (Species: MOUSE, Strain/Sex: B6C3F1/MALE, Route: INTRAPERITONEAL, Dose: 0, 1.25 UMOL IN 35 µL DMSO ON D 1, 8, AND 15 AFTER BIRTH (STUDY DURATION: 8 MO), Tumor Site: Type of Lesion: LIVER: HEPATOCELLULAR ADENOMA) “active; positive”; (Species: MOUSE, Strain/Sex: B6C3F1/MALE, Route: INTRAPERITONEAL, Dose: 0, 1.25 UMOL IN 35 µL DMSO ON D 1, 8, AND 15 AFTER BIRTH (STUDY DURATION: 12 MO), Tumor Site: Type of Lesion: LIVER: HEPATOCELLULAR ADENOMA, HEPATOCELLULAR CARCINOMA) “active; positive”; (Species: MOUSE, Strain/Sex: BALB/CSTCRLFC3HF/NCTR/FEMALE, Route: ORAL, Dose: 0, 7, 19, 38, 75, 150, 300 PPM IN DRINKING WATER FOR 96 WK (STUDY DURATION: 96 WK), Dose: 0, 7, 19, 38, 75, 150, 300 PPM IN DRINKING WATER FOR 96 WK (STUDY DURATION: 96 WK), Tumor Site: Type of Lesion: BLOOD VESSELS: ANGIOSARCOMA, LIVER: HEPATOCELLULAR CARCINOMA) “active; positive”; (Species: MOUSE, Strain/Sex: BALB/CSTCRLFC3HF/NCTR/MALE, Route: ORAL, Dose: 0, 7, 14, 28, 55, 110, 220 PPM IN DRINKING WATER FOR 96 WK (STUDY DURATION: 96 WK), Dose: 0, 7, 14, 28, 55, 110, 220 PPM IN DRINKING WATER FOR 96 WK (STUDY DURATION: 96 WK), Tumor Site: Type of Lesion: BLOOD VESSELS: ANGIOSARCOMA, BLADDER: CARCINOMA) “active; positive”; (Species: RABBIT, Route: ORAL, Tumor Site: Type of Lesion: URINARY BLADDER) “active; positive”; (Species: RAT, Route: SUBCUTANEOUS, Tumor Site: Type of Lesion: MAMMARY GLAND, INTESTINES) “active; positive”.
`C=CCOC(=O)c1ccccc1C(=O)OCC=C`: the carcinogen call reads like this: (Species: MOUSE, Strain/Sex: B6C3F1/FEMALE, Route: GAVAGE, Dose: 0, 150, 300 MG/KG IN CORN OIL FOR 5 D/WK FOR 103 WK (STUDY DURATION: 103 WK), Dose: 0, 150, 300 MG/KG IN CORN OIL FOR 5 D/WK FOR 103 WK (STUDY DURATION: 103 WK), Tumor Site: Type of Lesion: FORESTOMACH: SQUAMOUS CELL PAPILLOMA) “equivocal”; (Species: MOUSE, Strain/Sex: B6C3F1/MALE, Route: GAVAGE, Dose: 0, 150, 300 MG/KG IN CORN OIL FOR 5 D/WK FOR 103 WK (STUDY DURATION: 103 WK), Dose: 0, 150, 300 MG/KG IN CORN OIL FOR 5 D/WK FOR 103 WK (STUDY DURATION: 103 WK), Tumor Site: Type of Lesion: FORESTOMACH: SQUAMOUS CELL PAPILLOMA, HEMATOPOIETIC SYSTEM: LYMPHOMA) “equivocal”; (Species: RAT, Strain/Sex: F344/FEMALE, Route: GAVAGE, Dose: 0, 50, 100 MG/KG IN CORN OIL 5 D/WK FOR 103 WK (STUDY DURATION: 105 WK), Dose: 0, 50, 100 MG/KG IN CORN OIL 5 D/WK FOR 103 WK (STUDY DURATION: 105 WK), Tumor Site: Type of Lesion: HEMATOPOIETIC SYSTEM: MONONUCLEAR CELL LEUKEMIA) “equivocal”; (Species: RAT, Strain/Sex: F344/MALE, Route: GAVAGE, Dose: 0, 50, 100 MG/KG IN CORN OIL 5 D/WK FOR 103 WK (STUDY DURATION: 105 WK), Dose: 0, 50, 100 MG/KG IN CORN OIL 5 D/WK FOR 103 WK (STUDY DURATION: 105 WK)) “inactive; negative”.
With `O=C(O)CO`, the carcinogen call (Species: Mouse, Strain/Sex: SKH-1/Female (18/Group), Route: Dermal, Dose: 0, 4, 10% administered as topical cream (pH 3.5) , 5 d/wk, 40 wk, animals held an additional 12 wk for study duration of, Tumor Site: Type of Lesion: Skin: Carcinoma in situ, squamous cell carcinoma, basal cell carcinoma) is “inactive; negative. when synthetic solar light (ssl) at 0.3 and 0.6 the minimal erythema d”; the carcinogen call (Species: Mouse, Strain/Sex: SKH-1/Male (18/Group), Route: Dermal, Dose: 0, 4, 10% administered as topical cream (pH 3.5) , 5 d/wk, 40 wk, animals held an additional 12 wk for study duration of, Tumor Site: Type of Lesion: Skin: Carcinoma in situ, squamous cell carcinoma, basal cell carcinoma) was “inactive; negative. when synthetic solar light (ssl) at 0.3 and 0.6 the minimal erythema d”.
With `CCCN(CC(C)=O)N=O`, the carcinogen call was “active; positive” (Species: HAMSTER, Strain/Sex: SYRIAN/MALE,FEMALE, Route: SUBCUTANEOUS, Dose: 50-200 MG/KG 1/WK FOR LIFE, Tumor Site: Type of Lesion: RESPIRATORY TRACT, LIVER, KIDNEY, Tumor Site: Type of Lesion: RESPIRATORY TRACT, LIVER, KIDNEY); “active; positive” (Species: MOUSE, Strain/Sex: NMRI/FEMALE, Route: SUBCUTANEOUS, Dose: 0.05, 0.1, 0.2% OF 603 MG/KG IN SALINE 1/WK FOR LIFE, Dose: 0.05, 0.1, 0.2% OF 603 MG/KG IN SALINE 1/WK FOR LIFE, Tumor Site: Type of Lesion: LIVER: HEMANGIOENDOTHELIAL SARCOMA, NASAL CAVITY: PAPILLOMA, ADENOCARCINOMA, NASAL TURBINATES: PAPILLOMA, ADENOCARCINOMA, Tumor Site: Type of Lesion: LIVER: HEMANGIOENDOTHELIAL SARCOMA, NASAL CAVITY: PAPILLOMA, ADENOCARCINOMA, NASAL TURBINATES: PAPILLOMA, ADENOCARCINOMA); “active; positive” (Species: RAT, Strain/Sex: SPRAGUE-DAWLEY/MALE,FEMALE, Route: SUBCUTANEOUS, Dose: 0.12, 0.42, 0.85 MG/KG 1/WK FOR LIFE, Dose: 0.12, 0.42, 0.85 MG/KG 1/WK FOR LIFE, Tumor Site: Type of Lesion: LIVER: HEPATOMA, CARCINOMA).
For the molecule `Cc1cc(Cc2ccc(N)c(C)c2)ccc1N`, the carcinogen call (Species: RAT, Route: ORAL, Tumor Site: Type of Lesion: LIVER) was “active; positive”.
Regarding `ClCCN(CCCl)c1ccc2ccccc2c1`, the carcinogen call was “active; positive” (Species: HUMAN, Route: ORAL, Tumor Site: Type of Lesion: URINARY BLADDER); “active; positive” (Species: MOUSE, Strain/Sex: STRAIN-A, Route: INTRAPERITONEAL, Dose: 75, 300, 1200, 4800 MG/KG IN 12 DOSES OVER 4 WK, Dose: 75, 300, 1200, 4800 MG/KG IN 12 DOSES OVER 4 WK, Tumor Site: Type of Lesion: LUNG: ADENOMA); “active; positive” (Species: RAT, Route: SUBCUTANEOUS, Dose: 40 MG IN REPEATED DOSES, Tumor Site: Type of Lesion: INJECTION SITE).
